Data set [1] has as its target T1, WDR5-MYC (Homo sapiens, UniProt P61964). Description: Inhibition of N-terminal his-tagged WDR5 (1 to 334 residues) (unknown origin)/Biotin tagged Myc (256-268 residues) (unknown origin) interaction measured after 1 hrs by HTRF assay. Type of data set: protein assay. (In general: In TR-FRET formats the signal depends on donor and acceptor labels being close together.)

The target in data set [2] is T2, WD repeat-containing protein 5 (Homo sapiens, UniProt P61964). Description: Inhibition of N-terminal his-tagged WDR5 (1 to 334 residues) (unknown origin) measured after 30 mins by HTRF assay relative to control.
The target in data set [3] is T2, WD repeat-containing protein 5. Nature of the data set: Inhibition of N-terminal his-tagged WDR5 (1 to 334 residues) (unknown origin) measured after 360 mins by HTRF assay relative to control.
Data set [4] concerns COR-L279. Description: Antiproliferative activity against human COR-L279 cells assessed as cell growth inhibition measured after 72 hrs by CellTier-Glo assay. Type of data set: functional.
In data set [5] the test system is Ramos. Description: Antiproliferative activity against human Ramos cells assessed as cell growth inhibition measured after 72 hrs by CellTier-Glo assay. Type of data set: functional.
The target of data set [6] is T2, WD repeat-containing protein 5. Nature of the data set: Inhibition of N-terminal his-tagged WDR5 (1 to 334 residues) (unknown origin) measured after 10 mins by HTRF assay relative to control.
Data set [7] has as its target T1, WDR5-MYC. Description: Inhibition of his-tagged WDR5/flag-tagged MYC interaction overexpressed in HEK293T cells incubated for 5 hrs. Type of data set: cell-based.
Data set [8] has as its system SHP77. Nature of the data set: Antiproliferative activity against human SHP77 cells assessed as cell growth inhibition measured after 72 hrs by CellTier-Glo assay. Type of data set: functional.
Data set [9] deals with HL-60. Description: Downregulation of RPL35 gene expression in human HL-60 cells measured after 24 hrs by RT-qPCR assay. The following applies: dose 3-10 µM. Type of data set: functional, cell-based. In general terms: In qPCR the cycle at which signal appears reflects the starting amount.
Data set [10] is described as follows: Microsomal stability in mouse liver microsome assessed as intrinsic clearance. Type of data set: ADME. The settings on record: liver microsomes, read-out: CLH.
Data set [11] deals with HL-60. Description: Effect on Cdc20 mRNA expression in human HL-60 cells measured after 24 hrs by RT-qPCR assay. Type of data set: functional, cell-based.
Data set [12] concerns HL-60. Description: Effect on MCM10 mRNA expression in human HL-60 cells measured after 24 hrs by RT-qPCR assay. Type of data set: functional, cell-based.
The target in data set [13] is WDR5-MYC (Homo sapiens) (UniProt P61964+P01106). Description: Inhibition of flag-tagged WDR5/endogenous MYC interaction in HEK293T cells overexpressing flag tagged WDR5 incubated for 6 hrs by coimmunoprecipitation assay. In kind it is cell-based. The settings on record: dose 5-30 µM.
The subject of data set [14] is NB-4. Description: Antiproliferative activity against human NB4 cells assessed as cell growth inhibition measured after 72 hrs by CellTier-Glo assay. In kind it is functional.
In data set [15] the target is T2, WD repeat-containing protein 5. Nature of the data set: Inhibition of N-terminal his-tagged WDR5 (1 to 334 residues) (unknown origin) measured after 30 mins by HTRF assay.
Data set [16] concerns HL-60. Description: Effect on MCM4 mRNA expression in human HL-60 cells measured after 24 hrs by RT-qPCR assay. In kind it is functional, cell-based.
Data set [17] deals with T2, WD repeat-containing protein 5. Nature of the data set: Inhibition of N-terminal his-tagged WDR5 (1 to 334 residues) (unknown origin) measured after 90 mins by HTRF assay relative to control.
For data set [18], the system named is HL-60. Description: Downregulation of RPL37A gene expression in human HL-60 cells measured after 24 hrs by RT-qPCR assay. In kind it is functional, cell-based. The settings on record: dose 3-10 µM.
Data set [19] has as its target T2, WD repeat-containing protein 5. Description: Inhibition of N-terminal his-tagged WDR5 (1 to 334 residues) (unknown origin) measured after 90 mins by HTRF assay.
Data set [20] shares this target. Nature of the data set: Inhibition of N-terminal his-tagged WDR5 (1 to 334 residues) (unknown origin) measured after 180 mins by HTRF assay.
The target is the same in data set [21]. Description: Inhibition of N-terminal his-tagged WDR5 (1 to 334 residues) (unknown origin) measured after 180 mins by HTRF assay relative to control.
Data set [22] has as its system HL-60. Nature of the data set: Downregulation of RPL23 gene expression in human HL-60 cells measured after 24 hrs by RT-qPCR assay. In kind it is functional, cell-based. The following applies: dose 3-10 µM.
The target of data set [23] is T2, WD repeat-containing protein 5. Nature of the data set: Inhibition of N-terminal his-tagged WDR5 (1 to 334 residues) (unknown origin) measured after 10 mins by HTRF assay.
In data set [24] the test system is HL-60. Nature of the data set: Downregulation of RPL17 gene expression in human HL-60 cells measured after 24 hrs by RT-qPCR assay. In kind it is functional, cell-based. The following applies: dose 3-10 µM.
In data set [25] the target is T3, Histone-lysine N-methyltransferase 2A/WDR5 (Homo sapiens) (UniProt P61964+Q03164). Nature of the data set: Inhibition of MLL/flag-tagged WDR5 interaction in HEK293T cells overexpressing flag-tagged WDR5 upto 30 uM incubated for 6 hrs by coimmunoprecipitation assay. In kind it is cell-based.
For data set [26], the system named is HL-60. Nature of the data set: Antiproliferative activity against human HL-60 cells assessed as cell growth inhibition measured after 72 hrs by CellTier-Glo assay. Type of data set: functional.
Data set [27] can be described thus: Apparent permeability of the compound in dog MDCKII-LE cells measured upto 1.5 hrs. In kind it is ADME, cell-based, Canis lupus familiaris. The settings on record: MDCK.
Data set [28] has as its target T1, WDR5-MYC. Nature of the data set: Inhibition of WDR5 (unknown origin)/MYC (unknown origin) interaction. Type of data set: protein assay.
Data set [29] concerns HL-60. Nature of the data set: Effect on AURKB mRNA expression in human HL-60 cells measured after 24 hrs by RT-qPCR assay. Type of data set: functional, cell-based.
Data set [30] deals with Daudi. Description: Antiproliferative activity against human Daudi cells assessed as cell growth inhibition measured after 72 hrs by CellTier-Glo assay. Type of data set: functional.
Data set [31] deals with T3, Histone-lysine N-methyltransferase 2A/WDR5 (Homo sapiens). Description: Inhibition of WDR5 (unknown origin)/MLL (unknown origin) interaction by NanoBiT assay. In kind it is protein assay.
In data set [32] the test system is NCI-H1650. Description: Antiproliferative activity against human NCI-H1650 cells assessed as cell growth inhibition measured after 72 hrs by CellTier-Glo assay. In kind it is functional.
Data set [33] concerns NCI-H520. Description: Antiproliferative activity against human NCI-H520 cells assessed as cell growth inhibition measured after 72 hrs by CellTier-Glo assay. Type of data set: functional.
The target in data set [34] is T2, WD repeat-containing protein 5. Nature of the data set: Inhibition of N-terminal his-tagged WDR5 (1 to 334 residues) (unknown origin) measured after 360 mins by HTRF assay.
The subject of data set [35] is HEK293T. Description: Inhibition of RBBP5/flag-tagged WDR5 interaction in HEK293T cells overexpressing flag-tagged WDR5 upto 30 uM incubated for 6 hrs by coimmunoprecipitation assay. Type of data set: cell-based. The following applies: Homo sapiens.

Active and inactive are the calls of the source. The rule behind the calls is not given here.

The term IC50 denotes the concentration at which inhibition is half-maximal. A high value points to weaker potency in that assay. As a reminder, the inhibition is how much of the control response was suppressed. By GI50 is commonly meant the concentration at which growth is held to half of that of the control. What is called Papp is the rate of passage across a membrane or cell layer, normalised by area and donor concentration.

`Cc1cc(=O)c(C(=O)NCc2c(F)cc(-c3cccc(S(=O)(=O)F)c3)cc2F)nn1-c1cccc(C(=O)O)c1` registered an IC50 in data set [1] of 190 nM.
Turning to `Cc1cc(=O)c(C(=O)NCc2c(F)cc(-c3cccc(S(=O)(=O)F)c3)cc2F)nn1-c1ccccc1`, the inhibition in [2] was 64%; in [3], 91.9%; in [6], 59.3%; in data set [13], “Dose-Dependent Effect”; in [17] it was 78.5%; in data set [21], 88.5%. In addition, the GI50 was 4.2 µM in data set [4]; 4.3 µM in data set [5]; 16.6 µM in [8]; 7.1 µM in data set [14]; 4.6 µM in data set [26]; 15.4 µM in data set [30]. In addition, the GI50 stood at 22.6 µM in [32] and 9.4 µM in [33]. Moreover, the concentration for half-maximal inhibition (IC50) in [7] came to 4.8 µM; in data set [1], 390 nM; in data set [15], 790 nM; in data set [19], 300 nM; in [20], 170 nM; in [23], 2090 nM. Besides, the half-inhibitory concentration (IC50) worked out at 5.8 µM in data set [28] and 100 nM in data set [34]. Also, the Activity entry in [9], in data set [18], in data set [22] and in data set [24] was “Dose-Dependent Effect” throughout. For the same molecule, in data set [10], the microsomal CLint turned out to be 46.9 µL/min/mg. Besides, the outcome in [11], in [12], in data set [16] and in data set [29] was inactive. In addition, the inhibition entry in data set [25], in data set [31] and in data set [35] was “inactive” throughout. Further, the apparent permeability (Papp) at 1.5 h in data set [27] is 1.77 ×10⁻⁶ cm/s.
In turn, `Cc1cc(=O)c(C(=O)NCc2c(F)cc(C3CCCOC3)cc2F)nn1-c1ccccc1` (centres undefined) gave an IC50 in data set [1] of 3830 nM. This counts as single-digit micromolar.
In data set [1], `Cc1cc(=O)c(C(=O)NCc2c(F)cc(C3=CC(=O)CCC3)cc2F)nn1-c1ccccc1` showed a half-maximal inhibitory concentration (IC50) of 1580 nM.
`Cc1cc(=O)c(C(=O)NCc2c(F)cc(N3CC[C@@H](F)C3)cc2F)nn1-c1cccc(C(=O)O)c1` had a half-inhibitory concentration (IC50) in data set [1] of 1230 nM.
Same read-out and setting: for `Cc1cc(=O)c(C(=O)NCc2c(F)cc(-c3cccc(S(=O)(=O)O)c3)cc2F)nn1-c1ccccc1` the value was 910 nM; for `Cc1cc(=O)c(C(=O)NCc2c(F)cc(N3CCCC(F)(F)C3)cc2F)nn1-c1ccccc1`, 820 nM; for `Cc1cc(=O)c(C(=O)NCc2c(F)cc(N3CC[C@@H](O)C3)cc2F)nn1-c1ccccc1`, 3720 nM.
Turning to `Cc1cc(=O)c(O)c(C(=O)NCc2ccc(-c3ccccc3C#N)cc2)o1`, in data set [1], the half-inhibitory concentration (IC50) was 13900 nM. Against the preceding molecule, the IC50 is about 3.7-fold higher.
`Cc1cc(=O)c(C(=O)NCc2c(F)cc(-c3ccccc3)cc2F)nn1-c1cccnc1` showed a half-inhibitory concentration (IC50) in data set [1] of 25400 nM.
Regarding `Cc1cc(=O)c(C(=O)NCc2c(F)cc(N3CC[C@@H](F)C3)cc2F)nn1-c1cccc(CC(N)=O)c1`, the IC50 in [1] worked out at 3150 nM.
In data set [1], `Cc1cc(=O)c(C(=O)NCc2c(F)cc(-c3cccnc3)cc2F)nn1-c1ccccc1` yielded an IC50 of 4450 nM.
Turning to `Cc1cc(=O)c(C(=O)NCc2c(F)cc(N3CC[C@H](F)C3)cc2F)nn1-c1ccccc1`, in data set [1], the IC50 stood at 1200 nM. This IC50 is about 3.7-fold lower than that of the molecule before.
`Cc1cc(=O)c(C(=O)NCc2c(F)cc(N3CC[C@H](O)C3)cc2F)nn1-c1ccccc1` showed a concentration for half-maximal inhibition (IC50) in [1] of 5670 nM.
On the same count and under the same terms, as for `Cc1cc(=O)c(C(=O)NCc2c(F)cc(N3CC[C@@H](F)C3)cc2F)nn1-c1ccccc1`, the figure is 780 nM.

Values taken from ChEMBL document CHEMBL5352508, “Discovery and Structure-Based Design of Inhibitors of the WD Repeat-Containing Protein 5 (WDR5)-MYC Interaction” (J Med Chem, 2023).
